According to US20260137706A1, “METHODS OF TREATING INFLAMMATORY DISEASES” (INTERLINE THERAPEUTICS, INC., priority 2023, published 2026):

Legend:
[1] = molecular target: T1, binding of His-XIAP(BIR2)-avi fusion protein to GST-RIPK2 fusion protein (RIPK2/XIAP) (Homo sapiens, UniProt O43353); assay: RIPK2-XIAP binding competition PPI assay (TR-FRET); settings: RIPK2/XIAP binding competition PPI assay; for Emax: Amax, read-out: PPI Amax bin; for IC50: read-out: PPI IC50 bin
T1 construct: made in house; host or cells: baculovirus infected Sf9 cells
Summary of the method: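 Compounds (in DMSO, 100-fold stock) incubated 120 min at 23 °C with 1 nM GST-RIPK2 (aa 1-310) and 25 nM His-XIAP(BIR2 aa 152-231)-avi, plus anti-His-XL665 and anti-GST-Tb, in pH 7.5 Tris buffer. Read-out: 665/520 nm emission ratio. Normalized to no-inhibitor (0%) and 50 nM GSK583 (−100%); Amax binned A–D.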

[2] = molecular target: T2, GST-RIPK2 fusion protein (human RIPK2, amino acids 1-310) (Homo sapiens, UniProt O43353); assay: RIPK2 binding competition assay (TR-FRET, Tracer 199 displacement); settings: 10 nM Tracer 199, 1 nM GST-RIPK2, read-out: RIPK2 IC50
T2 construct: made in house; host or cells: baculovirus infected Sf9 cells
Summary of the method: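 IC50 derived from the TR-FRET emission ratio (665/620 nm, 337 nm excitation), normalized with no-inhibitor and no-enzyme controls. Incubation 45 min at 22 °C, pH 7.5 Tris buffer, with final 10 nM tracer, 1 nM Sf9-expressed GST-RIPK2 fragment (aa 1-310) and 0.5 nM Tb-labelled anti-GST.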

[3] = system: NF-κB pathway (SEAP) in THP1-Dual cells; assay: THP-1 Dual cell SEAP assay (L18-MDP stimulated); type: cell-based; settings: Homo sapiens, THP1-Dual, read-out: NF-κB THP1 IC50 bin
Summary of the method: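 IC50 values derive from non-linear regression of % inhibition, calculated against DMSO/L18-MDP-treated wells after media-only subtraction. NF-κB SEAP activity was read at OD 620-655 nm (QUANTI-Blue, 2 h, 37 °C) from supernatants of THP1-Dual cells. Cells had been compound-treated 30 min before overnight (20-24 h) stimulation with 10 ng/mL final L18-MDP.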

T2 sequence (O43353 1-310): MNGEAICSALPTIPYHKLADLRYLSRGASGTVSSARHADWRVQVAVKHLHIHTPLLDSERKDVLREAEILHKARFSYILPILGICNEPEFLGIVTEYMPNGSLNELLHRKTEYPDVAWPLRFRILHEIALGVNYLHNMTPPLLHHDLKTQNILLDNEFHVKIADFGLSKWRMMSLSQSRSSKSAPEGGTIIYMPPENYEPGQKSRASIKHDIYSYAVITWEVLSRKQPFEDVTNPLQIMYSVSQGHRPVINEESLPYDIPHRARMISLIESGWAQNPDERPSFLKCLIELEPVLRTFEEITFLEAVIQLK
T1 sequence (O43353 1-310 limits assumed): as the sequence (O43353 1-310) above

SMILES	Emax [1] [%]	IC50 [1] [nM]	IC50 [2] [nM]	IC50 [3] [nM]
CC(C)(C)S(=O)(=O)c1cn2c(-c3cc(F)c(N)nc3F)cnc2cc1OCC1(CO)COC1 [Example 49, (3-(((3-(6-amino-2,5-difluoropyridin-3-yl)-6-(tert-butylsulfonyl)imidazo[1,2-a]pyridin-7-yl)oxy)methyl)oxetan-3-yl)methanol]	> 80	2.5 to 20	2.5 to 20	250 to 1000
Cc1c(-c2cnc3cc(OCCO)c(S(=O)(=O)C(C)(C)C)cn23)cnc(N)c1F [Example 50, 2-((3-(6-amino-5-fluoro-4-methylpyridin-3-yl)-6-(tert-butylsulfonyl)imidazo[1,2-a]pyridin-7-yl)oxy)ethan-1-ol]	55 to 80	> 20	> 20	> 1000
Cc1nc(N)c(F)cc1-c1cnc2cc(OCCO)c(S(=O)(=O)C(C)(C)C)cn12 [Example 51, 2-((3-(6-amino-5-fluoro-2-methylpyridin-3-yl)-6-(tert-butylsulfonyl)imidazo[1,2-a]pyridin-7-yl)oxy)ethan-1-ol]	< 30	> 20	> 20	> 1000
CC(C)(C)S(=O)(=O)c1cn2c(-c3cc4cc[nH]c4nc3F)cnc2cc1OCCO [Example 52, 2-((6-(tert-butylsulfonyl)-3-(6-fluoro-1H-pyrrolo[2,3-b]pyridin-5-yl)imidazo[1,2-a]pyridin-7-yl)oxy)ethan-1-ol]	> 80	< 1	< 1	< 50
CC(C)(C)S(=O)(=O)c1cn2c(-c3cnc4[nH]ccc4c3)cnc2cc1OCCO [Example 53, 2-((6-(tert-butylsulfonyl)-3-(1H-pyrrolo[2,3-b]pyridin-5-yl)imidazo[1,2-a]pyridin-7-yl)oxy)ethan-1-ol]	> 80	1 to 2.5	< 1	50 to 250
CC(C)(C)S(=O)(=O)c1cn2c(-c3cc(F)c(N)nc3F)cnc2cc1OCC(F)(F)CO [Example 54, 3-((3-(6-amino-2,5-difluoropyridin-3-yl)-6-(tert-butylsulfonyl)imidazo[1,2-a]pyridin-7-yl)oxy)-2,2-difluoropropan-1-ol]	> 80	2.5 to 20	1 to 2.5	50 to 250
CC(C)(C)S(=O)(=O)c1cn2c(-c3cc(F)c(N)nc3F)cnc2cc1OCC(O)CO (centres unmarked) [Example 55, 3-((3-(6-amino-2,5-difluoropyridin-3-yl)-6-(tert-butylsulfonyl)imidazo[1,2-a]pyridin-7-yl)oxy)propane-1,2-diol]	> 80	2.5 to 20	2.5 to 20	250 to 1000
CC(C)(C)S(=O)(=O)c1cn2c(-c3cc(F)c(N)nc3F)cnc2cc1OCC1(CO)CC1 [Example 56, (1-(((3-(6-amino-2,5-difluoropyridin-3-yl)-6-(tert-butylsulfonyl)imidazo[1,2-a]pyridin-7-yl)oxy)methyl)cyclopropyl)methanol]	> 80	2.5 to 20	2.5 to 20	50 to 250
CC(C)(C)S(=O)(=O)c1cn2c(-c3cc(F)c(N)nc3F)cnc2cc1OCC(CO)C(F)(F)F (centres unmarked) [Example 57, 2-(((3-(6-amino-2,5-difluoropyridin-3-yl)-6-(tert-butylsulfonyl)imidazo[1,2-a]pyridin-7-yl)oxy)methyl)-3,3,3-trifluoropropan-1-ol]	> 80	2.5 to 20	2.5 to 20	250 to 1000
COc1cc2ncc(-c3ccc(N)nc3F)n2cc1S(=O)(=O)C(C)(C)CO [Example 58, 2-((3-(6-amino-2-fluoropyridin-3-yl)-7-methoxyimidazo[1,2-a]pyridin-6-yl)sulfonyl)-2-methylpropan-1-ol]	> 80	> 20	> 20	> 1000
CCCS(=O)(=O)Nc1cc(-c2cnc3cc(OC)c(S(=O)(=O)C(C)(C)CO)cn23)cc(OC)c1OC [Example 59, N-(5-(6-((1-hydroxy-2-methylpropan-2-yl)sulfonyl)-7-methoxyimidazo[1,2-a]pyridin-3-yl)-2,3-dimethoxyphenyl)propane-1-sulfonamide]	> 80	< 1	< 1	< 50
COc1cc2ncc(-c3cc(F)c(N)nc3F)n2cc1S(=O)(=O)C(C)(C)CO [Example 60, 2-((3-(6-amino-2,5-difluoropyridin-3-yl)-7-methoxyimidazo[1,2-a]pyridin-6-yl)sulfonyl)-2-methylpropan-1-ol]	> 80	2.5 to 20	2.5 to 20	250 to 1000
COc1cc2ncc(-c3ccc(N)nc3F)n2cc1S(=O)(=O)CCCO [Example 61, 3-((3-(6-amino-2-fluoropyridin-3-yl)-7-methoxyimidazo[1,2-a]pyridin-6-yl)sulfonyl)propan-1-ol]	> 80	> 20	> 20	> 1000
COc1cc2ncc(-c3cc(F)c(N)nc3F)n2cc1S(=O)(=O)C(C)(C)CCO [Example 62, 3-((3-(6-amino-2,5-difluoropyridin-3-yl)-7-methoxyimidazo[1,2-a]pyridin-6-yl)sulfonyl)-3-methylbutan-1-ol]	> 80	2.5 to 20	2.5 to 20	250 to 1000
COc1cc2ncc(-c3cc(F)c(N)nc3F)n2cc1S(=O)(=O)C(C)(C)CCCO [Example 63, 4-((3-(6-amino-2,5-difluoropyridin-3-yl)-7-methoxyimidazo[1,2-a]pyridin-6-yl)sulfonyl)-4-methylpentan-1-ol]	> 80	2.5 to 20	2.5 to 20	> 1000
COc1cc2ncc(-c3cc(F)c(N)nc3F)n2cc1S(=O)(=O)C(C)(C)c1nc(C)no1 [Example 64, 3,6-difluoro-5-(7-methoxy-6-((2-(3-methyl-1,2,4-oxadiazol-5-yl)propan-2-yl)sulfonyl)imidazo[1,2-a]pyridin-3-yl)pyridin-2-amine]	> 80	> 20	> 20	> 1000
COc1cc2ncc(-c3cc(F)c(N)nc3F)n2cc1S(=O)(=O)C(C)(C)Cn1cccn1 [Example 65, 3,6-difluoro-5-(7-methoxy-6-((2-methyl-1-(1H-pyrazol-1-yl)propan-2-yl)sulfonyl)imidazo[1,2-a]pyridin-3-yl)pyridin-2-amine]	> 80	> 20	> 20	> 1000
COc1cc2ncc(-c3ccc(N)nc3F)n2cc1S(=O)(=O)C1CC1 [Example 66, 5-(6-(cyclopropylsulfonyl)-7-methoxyimidazo[1,2-a]pyridin-3-yl)-6-fluoropyridin-2-amine]	> 80	> 20	> 20	> 1000
CCCS(=O)(=O)Nc1cc(-c2cnc3cc(OC)c(S(=O)(=O)C4(C)CC4)cn23)cc(OC)c1OC [Example 67, N-(2,3-dimethoxy-5-(7-methoxy-6-((1-methylcyclopropyl)sulfonyl)imidazo[1,2-a]pyridin-3-yl)phenyl)propane-1-sulfonamide]	> 80	< 1	< 1	< 50
COc1cc2ncc(-c3cc(F)c(N)nc3F)n2cc1S(=O)(=O)C1(C)CC1 [Example 68, 3,6-difluoro-5-(7-methoxy-6-((1-methylcyclopropyl)sulfonyl)imidazo[1,2-a]pyridin-3-yl)pyridin-2-amine]	> 80	> 20	> 20	> 1000
CCC(C)(C)S(=O)(=O)c1cn2c(-c3cc(F)c(N)nc3F)cnc2cc1OC [Example 69, 3,6-difluoro-5-(7-methoxy-6-(tert-pentylsulfonyl)imidazo[1,2-a]pyridin-3-yl)pyridin-2-amine]	> 80	2.5 to 20	2.5 to 20	250 to 1000
COc1cc2ncc(-c3cc(F)c(N)nc3F)n2cc1S(=O)(=O)C1(C)CCN(C(=O)OC(C)(C)C)CC1 [Example 70, tert-butyl 4-((3-(6-amino-2,5-difluoropyridin-3-yl)-7-methoxyimidazo[1,2-a]pyridin-6-yl)sulfonyl)-4-methylpiperidine-1-carboxylate]	> 80	> 20	> 20	> 1000
COc1cc2ncc(-c3cc(F)c(N)nc3F)n2cc1S(=O)(=O)C1(C)CCNCC1 [Example 71, 3,6-difluoro-5-(7-methoxy-6-((4-methylpiperidin-4-yl)sulfonyl)imidazo[1,2-a]pyridin-3-yl)pyridin-2-amine]	> 80	2.5 to 20	2.5 to 20	> 1000
